Results published in article PMC6272684, “Synthesis, Antiproliferative and Antifungal Activities of 1,2,3-Triazole-Substituted Carnosic Acid and Carnosol Derivatives” (Molecules, 2015).
“And” between values parts separate entries of the source, which are not always exact repeats. Equal values may be shown once.

Key:
[1] = system: C. neoformans ATCC 32264; assay: Antifungal broth microdilution (CLSI M27-A3), growth inhibition; assay type: cell-based, Cryptococcus neoformans; conditions: for MIC50 (minimum concentration to inhibit 50% of fungal growth), C. neoformans: C. neoformans ATCC 32264
Method: (§1) The antifungal properties of compounds 1–24 against two clinical important fungal species, C. albicans ATCC 10231 and C. neoformans ATCC 32264 were investigated. Results were expressed as the percentages of inhibition of each fungus in the range 250–3.9 μg∙mL^−1 by using the standardized microbroth dilution method M-27A3 of Clinical and Laboratory Standards Institute which assures reliable and reproducible results.
(§2) For the antifungal evaluation, standardized strains from the American Type Culture Collection (ATCC), Rockville, MD, USA, were used. The microorganisms included yeasts (Candida albicans ATCC 10231 and Cryptococcus neoformans ATCC 32264). Strains were grown on Sabouraud-chloramphenicol agar slants for 48 h at 30 °C, maintained on slopes of Sabouraud-dextrose agar (SDA, Oxoid), and subcultured every 15 days to prevent pleomorphic transformations. Inocula of cell or spore suspensions were obtained according to reported procedures and adjusted to 1–5 × 10^3 cells/spores with colony forming units (CFU)/mL [29].
(§3) Broth microdilution techniques were performed in 96-well microplates according to the Clinical and Laboratory Standards Institute Reference Method for Broth Dilution Antifungal Susceptibility Testing of Yeasts, Approved Standard M27-A3 [29]. For the assay, compound test wells (CTWs) were prepared with stock solutions of each compound in DMSO (maximum concentration ≤1%), diluted with RPMI-1640, to final concentrations of 250–3.9 μg∙mL^−1. An inoculum suspension (100 μL) was added to each well (final volume in the well = 200 μL). A growth control well (GCW) (containing medium, inoculum, and the same amount of DMSO used in a CTW, but compound-free) and a sterility control well (SCW) (sample, medium, and sterile water instead of inoculum) were included for each fungus tested. Microtiter trays were incubated in a moist, dark chamber at 30 °C for 48 h for both yeasts. Microplates were read in a VERSA Max microplate reader (Molecular Devices, Sunnyvale, CA, USA). Amphotericin B (Sigma-Aldrich) was used as positive control. Tests were performed in triplicate. Reduction of growth for each compound concentration was calculated as follows: % of inhibition = 100 − (OD 405 CTW − OD 405 SCW)/(OD 405 GCW − OD 405 SCW). The means ± SEM were the results of triplicate tests. Three endpoints were defined from the assay explained above and the dose-response curves. Minimum Inhibitory concentration (MIC) resulting in total fungal growth inhibition was named MIC100 while MIC50 was defined as the minimum concentration that inhibits 50% of the fungal growth.

[2] = system: C. albicans ATCC 10231; assay: as above; assay type: cell-based, Candida albicans; conditions: for MIC50 (minimum concentration to inhibit 50% of fungal growth), C. albicans: C. albicans ATCC 10231
Method: as §1, §2, §3

SMILES	MIC50 (minimum concentration to inhibit 50% of fungal growth), C. neoformans [1] [µg/mL]	MIC50 (minimum concentration to inhibit 50% of fungal growth), C. albicans [2] [µg/mL]	Inhibition percentage against C. neoformans ATCC 32264 ([1]; 3.9 μg∙mL^−1, 48 h) [%]	Inhibition percentage against C. neoformans ATCC 32264 ([1]; 7.8 μg∙mL^−1, 48 h) [%]	Inhibition percentage against C. neoformans ATCC 32264 ([1]; 15.6 μg∙mL^−1, 48 h) [%]	Inhibition percentage against C. neoformans ATCC 32264 ([1]; 31.2 μg∙mL^−1, 48 h) [%]	Inhibition percentage against C. neoformans ATCC 32264 ([1]; 62.5 μg∙mL^−1, 48 h) [%]	Inhibition percentage against C. neoformans ATCC 32264 ([1]; 125 μg∙mL^−1, 48 h) [%]	Inhibition percentage against C. neoformans ATCC 32264 ([1]; 250 μg∙mL^−1, 48 h)	Inhibition percentage against C. albicans ATCC 10231 ([2]; 3.9 μg∙mL^−1, 48 h) [%]	Inhibition percentage against C. albicans ATCC 10231 ([2]; 7.8 μg∙mL^−1, 48 h) [%]	Inhibition percentage against C. albicans ATCC 10231 ([2]; 15.6 μg∙mL^−1, 48 h) [%]	Inhibition percentage against C. albicans ATCC 10231 ([2]; 62.5 μg∙mL^−1, 48 h) [%]	Inhibition percentage against C. albicans ATCC 10231 ([2]; 125 μg∙mL^−1, 48 h) [%]	Inhibition percentage against C. albicans ATCC 10231 ([2]; 250 μg∙mL^−1, 48 h) [%]	Inhibition percentage against C. albicans ATCC 10231 ([2]; 31. μg∙mL^−1, 48 h) [%]
COC(=O)C12CCCC(C)(C)C1CCc1cc(C(C)C)c(OC(=O)CCCc3cn(Cc4ccc([N+](=O)[O-])cc4)nn3)c(OC(=O)CCCc3cn(Cc4ccc([N+](=O)[O-])cc4)nn3)c12 (centres unmarked) [Compound 16, Methyl(11,12-O-(4-(1-(4-nitrobenzyl)-1H-1,2,3-triazol-4-yl)-butanoyloxy)-abieta-8,11,13-triene)-20-oate]	>250	>250	0.0	3.5 ± 0.4	5.0 ± 0.4	7.9 ± 0.1	14.5 ± 0.2	35.5 ± 0.4	36.9 ± 0.8%	0.0	0.8 ± 0.1	2.3 ± 0.1	7.2 ± 0.1	11.7 ± 0.5	21.1 ± 2.4	3.4 ± 0.5
COC(=O)C12CCCC(C)(C)C1CCc1cc(C(C)C)c(OC(=O)CCCc3cn(Cc4ccc(Br)cc4)nn3)c(OC(=O)CCCc3cn(Cc4ccc(Br)cc4)nn3)c12 (centres unmarked) [Compound 14, Methyl(11,12-O-(4-(1-(4-bromobenzyl)-1H-1,2,3-triazol-4-yl)-butanoyloxy)-abieta-8,11,13-triene)-20-oate]	250	>250	0.0	4.5 ± 0.2	10.1 ± 1.0	12.0 ± 1.2	16.9 ± 1.1	30.1 ± 1.4	57.2%–67.4% and 67.4 ± 1.7%	1.3 ± 0.2	1.3 ± 0.3	1.9 ± 0.3	9.3 ± 1.5	13.3 ± 0.6	29.1 ± 2.5	6.3 ± 1.5
COC(=O)C12CCCC(C)(C)C1CCc1cc(C(C)C)c(OC(=O)CCc3cn(CSc4ccccc4)nn3)c(OC(=O)CCc3cn(CSc4ccccc4)nn3)c12 (centres unmarked) [Compound 9, Methyl(11,12-O-(3-(((1-phenylthio)methyl)-1H-1,2,3-triazol-4-yl)-propanoyloxy)-abieta-8,11,13-triene)-20-oate]	125	>250	0.0	5.1 ± 0.7	7.3 ± 0.4	13.7 ± 1.5	23.4 ± 1.3	53.6 ± 2.6	62.4 ± 3.8%	0.0	0.0	3.5 ± 0.3	9.4 ± 0.7	19.2 ± 0.1	15.9 ± 1.2	4.7 ± 0.1

More lines, main results first:

MIC50 (minimum concentration to inhibit 50% of fungal growth), C. neoformans [1] [µg/mL]	MIC50 (minimum concentration to inhibit 50% of fungal growth), C. albicans [2] [µg/mL]	SMILES	Inhibition percentage against C. neoformans ATCC 32264 ([1]; 3.9 μg∙mL^−1, 48 h) [%]	Inhibition percentage against C. neoformans ATCC 32264 ([1]; 7.8 μg∙mL^−1, 48 h) [%]	Inhibition percentage against C. neoformans ATCC 32264 ([1]; 15.6 μg∙mL^−1, 48 h) [%]	Inhibition percentage against C. neoformans ATCC 32264 ([1]; 31.2 μg∙mL^−1, 48 h) [%]	Inhibition percentage against C. neoformans ATCC 32264 ([1]; 62.5 μg∙mL^−1, 48 h) [%]	Inhibition percentage against C. neoformans ATCC 32264 ([1]; 125 μg∙mL^−1, 48 h) [%]	Inhibition percentage against C. neoformans ATCC 32264 ([1]; 250 μg∙mL^−1, 48 h)	Inhibition percentage against C. albicans ATCC 10231 ([2]; 3.9 μg∙mL^−1, 48 h) [%]	Inhibition percentage against C. albicans ATCC 10231 ([2]; 7.8 μg∙mL^−1, 48 h) [%]	Inhibition percentage against C. albicans ATCC 10231 ([2]; 15.6 μg∙mL^−1, 48 h) [%]	Inhibition percentage against C. albicans ATCC 10231 ([2]; 62.5 μg∙mL^−1, 48 h) [%]	Inhibition percentage against C. albicans ATCC 10231 ([2]; 125 μg∙mL^−1, 48 h) [%]	Inhibition percentage against C. albicans ATCC 10231 ([2]; 250 μg∙mL^−1, 48 h) [%]	Inhibition percentage against C. albicans ATCC 10231 ([2]; 31. μg∙mL^−1, 48 h) [%]
>250	>250	COC(=O)C12CCCC(C)(C)C1CCc1cc(C(C)C)c(OC(=O)CCc3cn(Cc4ccc(Br)cc4)nn3)c(OC(=O)CCc3cn(Cc4ccc(Br)cc4)nn3)c12 (centres unmarked) [Compound 13, Methyl(11,12-O-(3-(1-(4-bromobenzyl)-1H-1,2,3-triazol-4-yl)-propanoyloxy)-abieta-8,11,13-triene)-20-oate]	5.8 ± 0.6	10.0 ± 1.0	13.3 ± 0.3	13.7 ± 0.6	16.3 ± 1.1	16.8 ± 1.8	25.7 ± 0.5%	0.0	0.6 ± 0.1	1.3 ± 0.3	6.7 ± 0.1	10.7 ± 0.3	17.6 ± 0.2	4.3 ± 0.4
125	>250	CC(C)c1cc2c(c(OC(=O)CCCc3cn(Cc4ccc(Br)cc4)nn3)c1OC(=O)CCCc1cn(Cc3ccc(Br)cc3)nn1)C13CCCC(C)(C)C1CC2OC3=O (stereo not drawn) [Compound 22, (7β)-11,12-O-(4-(1-(4-bromobenzyl)-1H-1,2,3-triazol-4-yl)-butanoyloxy)-7,20-epoxyabieta-8,11,13-trien-20-one]	0.0	4.7 ± 0.8	4.8 ± 0.2	7.6 ± 0.9	28.5 ± 1.3	52.3 ± 2.3	–	0.0	2.9 ± 0.7	5.1 ± 0.4	7.0 ± 1.0	10.1 ± 0.8	12.5 ± 2.2	5.9 ± 0.2
>250	>250	CC(C)c1cc2c(c(OC(=O)CCc3cn(Cc4ccc(Br)cc4)nn3)c1OC(=O)CCc1cn(Cc3ccc(Br)cc3)nn1)C13CCCC(C)(C)C1CC2OC3=O (stereo not drawn) [Compound 21, (7β)-11,12-O-(3-(1-(4-bromobenzyl)-1H-1,2,3-triazol-4-yl)-propanoyloxy)-7,20-epoxyabieta-8,11,13-trien-20-one]	1.2 ± 0.6	6.7 ± 0.3	17.9 ± 0.2	18.9 ± 0.7	19.2 ± 0.2	28.8 ± 0.4	40.0 ± 0.3%	0.0	0.0	2.6 ± 0.6	4.4 ± 1.3	6.6 ± 1.1	8.6 ± 2.0	3.5 ± 0.6
